Test results published in patent publication US10918648B2, “Estrogen receptor modulator combinations” (The Regents of the University of California, priority 2016, dated 2021).

Legend:
A549 NSCLC cells = assay: NSCLC cell proliferation in vitro (MTS assay); type: cell-based, human
H1975 NSCLC cells = assay: NSCLC cell proliferation in vitro (MTS assay); type: cell-based, human; details: Homo sapiens, NCI-H1975, SERD alone, 72 hours, estrogen-depleted phenol red-free medium with 5% DCC-FBS, read-out: IC50 for inhibition of NSCLC cell proliferation, H1975
Procedure: (§1) Cell culture: Human breast and non-small cell lung cancer cells (MCF7, ZR75-1, MDAMB231, A549, H23, H1975, […]) were from ATCC. MCF7-HER2 were a kind gift of Dr. Dennis Slamon (23). Cell lines were routinely maintained in RPMI 1640 or DMEM medium with 10% fetal bovine serum (FBS) (Sigma-Aldrich) and 1% Antibiotic-Antimycotic solution 100× (Mediatech, Herndon, Va.). When indicated, for estrogen-free conditions, media was changed 48 h before experiments to phenol-red free RPMI 1640/DMEM with 1% dextran-coated, charcoal-treated (DCC)-FBS (24,25). Otherwise experiments were performed in phenol-red free RPMI 1640/DMEM medium with 5% DCC-FBS.
(§2) Cell proliferation assays: breast and lung tumor cells (between […]) were plated in 96 well plates using their respective medium with 10% FBS. For experiments using estradiol-17β, cells were rinsed with PBS and incubated with phenol redfree medium with 1% DCC-FBS for 48 hours as described before (24,25). Cells were then treated with different concentrations of SERDs ranging between 0.0001-100 μM. […] Cell counts and viability tests (Trypan blue) were done every 24 hr for 3 days. After 72 hr, proliferation was assessed with the MTS Assay CELLTITER 96® Aqueous Cell Proliferation Assay (Promega) or the Cell Proliferation ELISA, BrdU colorimetric assay (Roche). For the MTS, the absorbance of the formazan product was measured at 490 nanometer using the iMARK microplate reader from BIORAD. The BrdU ELISA assay is based on detection of BrdU incorporated into the genomic DNA of proliferating cells and an anti-BrdU antibody, the reaction product was quantified by measuring the absorbance at 370 nanometers using iMARK microplate reader from BIORAD. Cell numbers were also assessed initially by cell counts to confirm MTS/BrdU data. Experiments were done at least three times to confirm data.

H2122 NSCLC cells = assay: NSCLC cell proliferation in vitro (MTS assay); type: cell-based, human; details: Homo sapiens, NCI-H2122, SERD alone, 72 hours, estrogen-depleted phenol red-free medium with 5% DCC-FBS, read-out: IC50 for inhibition of NSCLC cell proliferation, H2122
Procedure: as §1, §2

[1] = system: MCF-7 breast cancer cells; assay: MCF-7 breast cancer cell proliferation (BrdU ELISA) in presence of estradiol-17β; type: cell-based, human; details: Homo sapiens, MCF7; 72 hrs in the presence of 1 nM estradiol-17β, BrdU ELISA; read-out: IC50 for inhibition of cell proliferation, MCF-7
Procedure: In experiments to assess potential proliferative effects of novel estrogen receptor ligands, human breast cancer cells were grown in phenol red-free, estrogen-free media with 1% dextran-coated charcoal-treated (DCC)-fetal bovine serum (FBS) for 48 hrs (15,44), then treated with either 1 μM or 50 μM doses of estrogen receptor antagonists in the presence of 1 nM estradiol-17β. Cell counts and viability tests (Trypan blue) were done every 24 hr for 3 days. After 72 hr, proliferation was assessed using the BrdU Cell proliferation ELISA (Roche). Cell numbers were also assessed initially by cell counts to confirm ELISA data. Each antiestrogen was tested at least in three different experiments.
In order to assess the antitumor action of novel estrogen receptor antagonists, we cultured human MCF-7 breast cancer cells with known expression of ERα. Cells were grown in 1% DCC-FBS for 48 hr and then treated with vehicle control or either 1 μM or 50 μM concentrations of antiestrogens JD 101-160 or the pure antiestrogen fulvestrant (FAS), all in the presence of 1 nM estradiol-170. […] Shown in FIG. 2A are results from MCF-7 cells grown in 1% DCC-FBS for 48 hr and then treated with vehicle control, 1 nM estradiol-170 and either 1 μM or 50 μM concentrations of antiestrogens JD 101-160 or the known pure antiestrogen fulvestrant (FAS) in the presence of 1 nM estradiol-170. Cell proliferation is expressed as percentage of that determined in the 1 nM estradiol-170-treated control group.
as §2

[2] = system: MAPK: ERK-1 (p44) and ERK-2 (p42); assay: Estrogen-induced MAPK phosphorylation, Western blot in MCF-7 cells; type: cell-based, human; details: MCF-7 parent cells, 1 nM estradiol (E2); antagonists pre-incubated at 1000 nM; FIG. 7A
Procedure: ERD inhibition of phosphorylation of MAPK, at both extracellular signal-regulated kinases ERK-1 (p44) and ERK-2 (p42) and downstream effects. […] Thus, we measured estrogen-induced phosphorylation of MAPK by established methods (9,15,16). Briefly, MCF-7 parental cells were estrogen deprived for 48 hrs, then treated with 1 nM estradiol-1713 in the presence of new compounds (10 nM-10 μM) to be tested for antagonist activity. After treatments, cell lysates were separated by SDS-PAGE followed by Western blot using a polyclonal antibody directed to phospho-p44/p42 MAP kinase (Thr202/Tyr204) (Cell Signaling). Immunodetection with antibody against total p44/p42 (Cell Signaling) was done as a control for gel loading. […] ERD S15 was as effective as fulvestrant in inhibiting the rapid estrogen-induced MAPK phosphorylation in breast tumor cells in vitro. […] E2 but not vehicle (CN) induced rapid phosphorylation of ERK-1 (p44) and ERK-2 (p42). This activation was prevented when cells were pre-incubated with 1000 nM ICI 182,780 (ICI; Faslodex) or 1000 nM compound S15 in the presence of estradiol (E2).

MCF-7 parental cells = details: MCF-7 parental xenografts in nude mice; cited from earlier work
MCF-7/HER-2 cells = details: MCF-7 cells with HER2-overexpression, xenografts in nude mice; cited from earlier work
Rb serine-780 = Rb serine-780 phosphorylation, Western blot in A549 cells; type: cell-based, human; details: 24 h, 1% DCC-FBS, 1 nM E2, 1 nM androstenedione, 10 nM testosterone, 10 μM letrozole, 100 nM palbociclib, FIG. 4C
Procedure: FIG. 4C. […] Cells were treated 24 h in phenol red-free RPMI with 1% DCC-FBS with vehicle control (CON), 1 nM estradiol-17β (E2), 1 nM androstenedione (And), 10 nM testosterone (Tes), 10 μM letrozole (AI), 100 nM palbociclib (Plbo) or both Plbo+AI. After 24 hr, cell lysates subjected to Western blot with antibody to phosphoserine-780 Rb or total Rb (Cell Signaling) (20). GAPDH is used as loading control.
To investigate the antitumor efficacy of CDK 4/6 inhibitor palbociclib in NSCLC cells, we assessed the effects of palbociclib alone and in combination with the hormonal therapeutic letrozole (see FIGS. 4B and 5B). The potential mechanism of action of palbociclib and letrozole in NSCLC cells was investigated by assay of the effects of these agents alone and combined on phosphorylation of Rb serine-780

cyclin D1 = assay: Cyclin D1 expression, Western immunoblot in A549 NSCLC cells; type: cell-based, human; details: 24 h, 1% DCC-FBS, letrozole 10 μM, FIG. 5B
Procedure: FIG. 5B. […] Cells were treated 24 h in phenol red-free RPMI with 1% DCC-FBS. Control (Con), estradiol-17β (E2; 1 nM), androstenedione (And; 1 nM), testosterone (Tst; 10 nM), letrozole (AI; 10 μM) and palbociclib (Plbo; 1 μM) were used in this experiment. GADPH is used as a loading control (20).

| Structure (SMILES) | IC50 (A549 NSCLC cells; Homo sapiens, A549, SERD alone, 72 hours, estrogen-depleted phenol red-free medium with 5% DCC-FBS, MTS assay, read-out: IC50 for inhibition of NSCLC cell proliferation, A549) | IC50 (H1975 NSCLC cells) | IC50 (H2122 NSCLC cells) | IC50 [1] | phosphorylation of MAPK (ERK-1 p44 and ERK-2 p42) [2] | growth of parent tumors (xenografts) (MCF-7 parental cells) | sensitivity of MCF-7/HER-2 xenografts (MCF-7/HER-2 cells) | inhibition of NSCLC cell proliferation (A549 NSCLC cells; A549, 72 hrs, single agents and palbociclib (10 or 100 nM)/letrozole (10 μM), FIG. 6B) | phosphorylation of Rb serine-780 (Rb serine-780) | cyclin D1 expression (cyclin D1) |
| --- | --- | --- | --- | --- | --- | --- | --- | --- | --- | --- |
| C[C@]12CC[C@@H]3c4ccc(O)cc4C[C@@H](CCCCCCCCC[S+]([O-])CCCC(F)(F)C(F)(F)F)[C@H]3[C@@H]1CC[C@@H]2O (stereo partly shown) [FULVEST, fulvestrant, reference compound] | 4160 nM | 1880 nM | 1290 nM | 1110 nM | prevented | suppressed | partially sensitive |  |  |  |
| N#Cc1ccc(C(c2ccc(C#N)cc2)n2cncn2)cc1 [letrozole] |  |  |  |  |  |  |  | dose-dependent inhibition | block | reduces cyclin D1 expression |
